According to US20250100994A1, “CDK12/13 COVALENT INHIBITORS OR PHARMACEUTICAL COMPOSITION THEREOF, AND USES THEREOF” (The Regents of the University of Michigan, priority 2023, published 2025):

Key:
CDK12 = CDK12 (Homo sapiens (Human), UniProt Q9NYV4); assay: LANCE Ultra kinase assay, CDK12; type: biochemical; conditions: 30 nM enzyme, 60 min pre-incubation, ULight-4E-BP1 150 nM; read-out: CDK12 IC50
Description: (§1) The inhibitory activities of the test compound on the kinases were evaluated by LANCE Ultra assay, which was used for detecting ATP-dependent phosphorylation of a ULight-4E-BP1 (Thr37/Thr46) substrate peptide (150 nM). In short, enzymatic reactions were performed in a reaction buffer (25 mM HEPES (pH 7.5), 10 mM MgCl2, 0.01% BSA, 0.01% Tween 20, and 1 mM DTT). The assay was performed in a 384-well plate (6 μL). A final concentration of an ATP substrate was […], and a final concentration of the ULight-4E-BP1 (Thr37/Thr46) substrate peptide was 150 nM. A final concentration of CDK9, CDK12, or CDK13 was 0.3, 30, or 30 nM, respectively. Pre-incubation of the compound and the enzyme was performed at room temperature for 60 min. The reaction was stopped by adding 10 mM EDTA and 0.15 nM Eu-labeled anti-phospho-eIF4E-binding protein 1 (Thr37/46) antibody in LANCE detection buffer after incubation at room temperature for 15, 60, or 90 min. Time-resolved fluorescence (excitation, 320 nm; emission donor, 615 nm; emission acceptor, 665 nm) was monitored using an EnVision spectrophotometer (PerkinElmer). Readings were computed as (acceptor count/donor count)×1000. IC50 values were derived by fitting a sigmoidal dose-response curve to a plot of assay readouts of inhibitor concentrations. All fittings were computed using program Prism 5.03 (GraphPad Software, San Diego, CA).

CDK13 = CDK13 (Homo sapiens (Human), UniProt Q14004); assay: LANCE Ultra kinase assay, CDK13; type: biochemical; conditions: 30 nM enzyme, 60 min pre-incubation, ULight-4E-BP1 150 nM; read-out: CDK13 IC50
Chain of CDK13 (Q14004 whole entry, looked up): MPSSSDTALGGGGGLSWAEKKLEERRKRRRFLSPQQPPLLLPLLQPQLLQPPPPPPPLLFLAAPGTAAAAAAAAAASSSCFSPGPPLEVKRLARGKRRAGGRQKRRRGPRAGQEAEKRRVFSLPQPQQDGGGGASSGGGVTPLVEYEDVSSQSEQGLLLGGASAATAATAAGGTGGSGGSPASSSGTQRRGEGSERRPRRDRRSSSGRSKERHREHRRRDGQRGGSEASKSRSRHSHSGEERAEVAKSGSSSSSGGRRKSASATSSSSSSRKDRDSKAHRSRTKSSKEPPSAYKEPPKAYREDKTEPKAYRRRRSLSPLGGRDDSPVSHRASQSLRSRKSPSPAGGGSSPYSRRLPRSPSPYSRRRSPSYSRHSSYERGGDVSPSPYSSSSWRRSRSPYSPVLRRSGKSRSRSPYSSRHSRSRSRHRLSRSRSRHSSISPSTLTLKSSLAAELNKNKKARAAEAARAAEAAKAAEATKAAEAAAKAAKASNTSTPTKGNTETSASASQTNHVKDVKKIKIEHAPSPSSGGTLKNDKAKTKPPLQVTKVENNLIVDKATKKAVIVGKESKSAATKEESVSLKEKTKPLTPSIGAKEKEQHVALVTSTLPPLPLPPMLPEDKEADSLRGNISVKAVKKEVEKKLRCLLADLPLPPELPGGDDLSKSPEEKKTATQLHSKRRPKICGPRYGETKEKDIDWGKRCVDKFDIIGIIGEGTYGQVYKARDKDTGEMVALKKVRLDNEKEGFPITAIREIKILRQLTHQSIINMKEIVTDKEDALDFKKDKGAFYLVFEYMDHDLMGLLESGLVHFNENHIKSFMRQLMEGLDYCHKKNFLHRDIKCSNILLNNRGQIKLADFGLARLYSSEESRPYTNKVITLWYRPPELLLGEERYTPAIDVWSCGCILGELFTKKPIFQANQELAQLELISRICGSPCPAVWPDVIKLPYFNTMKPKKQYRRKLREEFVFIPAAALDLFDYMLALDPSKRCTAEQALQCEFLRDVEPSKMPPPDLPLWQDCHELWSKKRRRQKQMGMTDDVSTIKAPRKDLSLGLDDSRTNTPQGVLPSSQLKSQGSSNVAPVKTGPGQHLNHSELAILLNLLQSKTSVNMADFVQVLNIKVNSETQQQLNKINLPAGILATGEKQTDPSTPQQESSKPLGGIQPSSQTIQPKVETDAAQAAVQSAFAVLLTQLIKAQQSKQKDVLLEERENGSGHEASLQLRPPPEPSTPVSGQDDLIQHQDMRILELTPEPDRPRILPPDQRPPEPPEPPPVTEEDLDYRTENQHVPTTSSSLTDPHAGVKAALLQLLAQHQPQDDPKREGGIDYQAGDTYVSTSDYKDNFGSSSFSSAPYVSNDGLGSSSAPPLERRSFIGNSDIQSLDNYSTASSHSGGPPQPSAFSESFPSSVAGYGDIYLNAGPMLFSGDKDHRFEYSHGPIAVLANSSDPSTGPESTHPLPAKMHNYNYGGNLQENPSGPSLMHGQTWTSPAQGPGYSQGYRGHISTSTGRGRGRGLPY
Chain of CDK13 (O75909 whole entry partner, looked up): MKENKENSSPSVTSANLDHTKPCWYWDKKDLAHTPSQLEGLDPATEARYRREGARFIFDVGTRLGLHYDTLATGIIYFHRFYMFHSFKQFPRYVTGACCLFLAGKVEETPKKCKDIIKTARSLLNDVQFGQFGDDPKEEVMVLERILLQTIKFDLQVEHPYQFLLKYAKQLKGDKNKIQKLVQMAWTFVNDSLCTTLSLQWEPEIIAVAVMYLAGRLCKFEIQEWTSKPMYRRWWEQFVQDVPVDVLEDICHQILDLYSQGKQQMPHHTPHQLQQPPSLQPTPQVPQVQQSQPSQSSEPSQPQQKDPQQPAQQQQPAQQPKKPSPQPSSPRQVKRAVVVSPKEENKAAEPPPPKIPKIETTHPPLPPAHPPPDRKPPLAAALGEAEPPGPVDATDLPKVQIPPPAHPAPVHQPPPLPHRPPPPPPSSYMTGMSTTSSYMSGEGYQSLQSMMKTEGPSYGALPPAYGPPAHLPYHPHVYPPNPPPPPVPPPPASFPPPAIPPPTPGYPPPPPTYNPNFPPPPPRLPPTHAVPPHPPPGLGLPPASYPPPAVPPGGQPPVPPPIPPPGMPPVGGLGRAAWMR
Description: as §1

Chain of CDK12 (Q9NYV4 whole entry): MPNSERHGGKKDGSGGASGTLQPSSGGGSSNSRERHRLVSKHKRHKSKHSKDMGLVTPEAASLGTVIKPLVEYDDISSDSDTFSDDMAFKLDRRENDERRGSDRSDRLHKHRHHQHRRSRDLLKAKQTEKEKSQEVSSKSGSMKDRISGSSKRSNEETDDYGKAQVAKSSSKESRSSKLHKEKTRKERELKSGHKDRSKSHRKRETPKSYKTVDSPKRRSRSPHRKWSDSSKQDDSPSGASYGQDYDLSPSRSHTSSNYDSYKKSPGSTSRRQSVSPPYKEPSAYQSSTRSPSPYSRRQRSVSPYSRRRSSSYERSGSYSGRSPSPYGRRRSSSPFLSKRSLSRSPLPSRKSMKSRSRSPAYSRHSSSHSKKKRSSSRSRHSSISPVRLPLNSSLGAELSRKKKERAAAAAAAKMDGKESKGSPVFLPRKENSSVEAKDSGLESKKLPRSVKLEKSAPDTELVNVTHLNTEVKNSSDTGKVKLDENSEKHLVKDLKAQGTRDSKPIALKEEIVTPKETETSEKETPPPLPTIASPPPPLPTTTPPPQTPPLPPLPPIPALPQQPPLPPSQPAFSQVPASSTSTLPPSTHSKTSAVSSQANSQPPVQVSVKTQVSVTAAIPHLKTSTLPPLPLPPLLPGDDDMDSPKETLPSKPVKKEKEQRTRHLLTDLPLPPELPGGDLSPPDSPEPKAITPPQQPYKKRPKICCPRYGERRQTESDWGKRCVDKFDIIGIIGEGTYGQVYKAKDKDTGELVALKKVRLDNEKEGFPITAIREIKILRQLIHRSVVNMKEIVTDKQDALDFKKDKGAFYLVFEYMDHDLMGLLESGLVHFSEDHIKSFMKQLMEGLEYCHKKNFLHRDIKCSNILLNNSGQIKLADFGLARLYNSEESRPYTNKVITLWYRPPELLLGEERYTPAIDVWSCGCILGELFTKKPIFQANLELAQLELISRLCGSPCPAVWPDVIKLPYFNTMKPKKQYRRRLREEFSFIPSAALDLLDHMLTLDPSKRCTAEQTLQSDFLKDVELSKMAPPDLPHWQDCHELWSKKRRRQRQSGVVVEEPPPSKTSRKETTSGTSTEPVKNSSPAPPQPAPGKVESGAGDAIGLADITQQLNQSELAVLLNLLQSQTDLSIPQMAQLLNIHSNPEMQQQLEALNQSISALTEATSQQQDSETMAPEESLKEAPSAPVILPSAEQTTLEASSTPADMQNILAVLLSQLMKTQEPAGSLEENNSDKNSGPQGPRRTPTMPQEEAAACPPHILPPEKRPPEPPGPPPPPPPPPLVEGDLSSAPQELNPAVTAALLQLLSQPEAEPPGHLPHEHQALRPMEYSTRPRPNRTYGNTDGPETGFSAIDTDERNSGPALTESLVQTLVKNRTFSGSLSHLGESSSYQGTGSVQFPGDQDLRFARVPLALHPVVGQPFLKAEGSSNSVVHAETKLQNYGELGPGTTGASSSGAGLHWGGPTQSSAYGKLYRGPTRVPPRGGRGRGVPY
Chain of CDK12 (O75909 whole entry partner): as the sequence (O75909 whole entry partner, looked up) above

Compound	IC50 (CDK12) [µM]	IC50 (CDK13) [µM]
C=CC(=O)Nc1cc(N(C(=O)NCc2ccccc2)[C@H]2CC[C@H](Nc3ccc(C#N)cn3)CC2)ccc1N1CCN(C)CC1 [YJZ5114, N-(5-(3-benzyl-1-((1r,4r)-4-((5-cyanopyridin-2-yl)amino)cyclohexyl)ureido)-2-(4-methylpiperazin-1-yl)phenyl)acrylamide]	0.05 to 0.5	0.05 to 0.5
C=CC(=O)Nc1cc(N(C(=O)NCc2cocn2)[C@H]2CC[C@H](Nc3ccc(C#N)cn3)CC2)ccc1N1CCN(C)[C@@H](C)C1 [YJZ1063, N-(5-(1-((1r,4S)-4-((5-cyanopyridin-2-yl)amino)cyclohexyl)-3-(oxazol-4-ylmethyl)ureido)-2-((S)-3,4-dimethylpiperazin-1-yl)phenyl)acrylamide]	0.05 to 0.5	0.05 to 0.5
C=CC(=O)Nc1cc(N(C(=O)NCC(F)(F)F)[C@H]2CC[C@H](Nc3ccc(C#N)cn3)CC2)ccc1N1CCN(C)[C@@H](C)C1 [YJZ1065, N-(5-(1-((1r,4S)-4-((5-cyanopyridin-2-yl)amino)cyclohexyl)-3-(2,2,2-trifluoroethyl)ureido)-2-((S)-3,4-dimethylpiperazin-1-yl)phenyl)acrylamide]	0.05 to 0.5	0.05 to 0.5
C=CC(=O)Nc1cc(N(C(=O)NC2CC2)[C@H]2CC[C@H](Nc3ccc(C#N)cn3)CC2)ccc1N1CCN(C)[C@@H](C)C1 [YJZ9173, N-(5-(1-((1r,4S)-4-((5-cyanopyridin-2-yl)amino)cyclohexyl)-3-cyclopropylureido)-2-((S)-3,4-dimethylpiperazin-1-yl)phenyl)acrylamide]	0.05 to 0.5	0.05 to 0.5
C=CC(=O)Nc1cc(N(C(=O)NCC2COC2)[C@H]2CC[C@H](Nc3ccc(C#N)cn3)CC2)ccc1N1CCN(C)[C@@H](C)C1 [YJZ1031, N-(5-(1-((1r,4S)-4-((5-cyanopyridin-2-yl)amino)cyclohexyl)-3-(oxetanyl-3-ylmethyl)ureido)-2-((S)-3,4-dimethylpiperazin-1-yl)phenyl)acrylamide]	> 0.5	> 0.5
C=C(F)C(=O)Nc1cc(N(C(=O)NCc2ccccc2)[C@H]2CC[C@H](Nc3ccc(C#N)cn3)CC2)ccc1N1CCN(C)[C@@H](C)C1 [YJZ1072, N-(5-(3-benzyl-1-((1r,4S)-4-((5-cyanopyridin-2-yl)amino)cyclohexyl)ureido)-2-((S)-3,4-dimethylpiperazin-1-yl)phenyl)-2-fluoroacrylamide]	0.05 to 0.5	0.015 to 0.05
C=CC(=O)Nc1cc(N(C(=O)NCc2cnn(C)c2)[C@H]2CC[C@H](Nc3ccc(C#N)cn3)CC2)ccc1N1CCN(C)[C@@H](C)C1 [YJZ1033, N-(5-(1-((1r,4S)-4-((5-cyanopyridin-2-yl)amino)cyclohexyl)-3-((1-methyl-1H-pyrazol-4-yl)methyl)ureido)-2-((S)-3,4-dimethylpiperazin-1-yl)phenyl)acrylamide]	> 0.5	0.05 to 0.5
C=CC(=O)Nc1cc(N(C(=O)NCc2ccccc2)[C@H]2CC[C@H](Nc3ccc(C(F)(F)F)cn3)CC2)ccc1N1CCN(C)[C@@H](C)C1 [YJZ1066, N-(5-(3-benzyl-1-((1r,4S)-4-((5-(trifluoromethyl)pyridin-2-yl)amino)cyclohexyl)ureido)-2-((S)-3,4-dimethylpiperazin-1-yl)phenyl)acrylamide]	0.015 to 0.05	< 0.015
C=CC(=O)Nc1cc(N(C(=O)NCc2ccccc2F)[C@H]2CC[C@H](Nc3ccc(C#N)cn3)CC2)ccc1N1CCN(C)[C@@H](C)C1 [YJZ9179, N-(5-(1-((1r,4S)-4-((5-cyanopyridin-2-yl)amino)cyclohexyl)-3-(2-fluorobenzyl)ureido)-2-((S)-3,4-dimethylpiperazin-1-yl)phenyl)acrylamide]	0.015 to 0.05	< 0.015
C=CC(=O)Nc1cc(N(C(=O)NCc2ccc(F)cc2)[C@H]2CC[C@H](Nc3ccc(C#N)cn3)CC2)ccc1N1CCN(C)[C@@H](C)C1 [YJZ9166, N-(5-(1-((1r,4S)-4-((5-cyanopyridin-2-yl)amino)cyclohexyl)-3-(4-fluorobenzyl)ureido)-2-((S)-3,4-dimethylpiperazin-1-yl)phenyl)acrylamide]	0.015 to 0.05	0.015 to 0.05
C=CC(=O)Nc1cc(N(C(=O)NCc2cccc(F)c2)[C@H]2CC[C@H](Nc3ccc(C#N)cn3)CC2)ccc1N1CCN(C)[C@@H](C)C1 [YJZ9177, N-(5-(1-((1r,4S)-4-((5-cyanopyridin-2-yl)amino)cyclohexyl)-3-(3-fluorobenzyl)ureido)-2-((S)-3,4-dimethylpiperazin-1-yl)phenyl)acrylamide]	0.015 to 0.05	< 0.015
C=CC(=O)Nc1cc(N(C(=O)N[C@H](C)c2ccccc2)[C@H]2CC[C@H](Nc3ccc(C#N)cn3)CC2)ccc1N1CCN(C)[C@@H](C)C1 [YJZ9176, N-(5-(1-((1r,4R)-4-((5-cyanopyridin-2-yl)amino)cyclohexyl)-3-((R)-1-phenylethyl)ureido)-2-((S)-3,4-dimethylpiperazin-1-yl)phenyl)acrylamide]	> 0.5	0.05 to 0.5
C=CC(=O)Nc1cc(N(C(=O)NCc2ccccc2)[C@H]2CC[C@H](Nc3ccc(C#N)cn3)CC2)ccc1Br [YJZ6048, N-(5-(3-benzyl-1-((1r,4r)-4-((5-cyanopyridin-2-yl)amino)cyclohexyl)ureido)-2-bromophenyl)acrylamide]	0.015 to 0.05	< 0.015
C=CC(=O)Nc1cc(N(C(=O)NCC2CC2)[C@H]2CC[C@H](Nc3ccc(C#N)cn3)CC2)ccc1N1CCN(C)[C@@H](C)C1 [YJZ1025, N-(5-(1-((1r,4S)-4-((5-cyanopyridin-2-yl)amino)cyclohexyl)-3-(cyclopropylmethyl)ureido)-2-((S)-3,4-dimethylpiperazin-1-yl)phenyl)acrylamide]	0.05 to 0.5	0.05 to 0.5
C=CC(=O)Nc1cc(N(C(=O)N[C@@H](C)c2ccccc2)[C@H]2CC[C@H](Nc3ccc(C#N)cn3)CC2)ccc1N1CCN(C)[C@@H](C)C1 [YJZ9170, N-(5-(1-((1r,4S)-4-((5-cyanopyridin-2-yl)amino)cyclohexyl)-3-((S)-1-phenylethyl)ureido)-2-((S)-3,4-dimethylpiperazin-1-yl)phenyl)acrylamide]	0.015 to 0.05	0.015 to 0.05
C=CC(=O)Nc1cc(N(C(=O)NCc2ccccc2Cl)[C@H]2CC[C@H](Nc3ccc(C#N)cn3)CC2)ccc1N1CCN(C)[C@@H](C)C1 [YJZ1060, N-(5-(3-(2-chlorobenzyl)-1-((1r,4S)-4-((5-cyanopyridin-2-yl)amino)cyclohexyl)ureido)-2-((S)-3,4-dimethylpiperazin-1-yl)phenyl)acrylamide]	< 0.015	< 0.015
C=CC(=O)Nc1cc(N(C(=O)NCc2ccccc2)[C@H]2CC[C@H](Nc3ccc(C#N)cn3)CC2)cnc1N1CCN(C)[C@@H](C)C1 [YJZ9171, N-(5-(3-benzyl-1-((1r,4S)-4-((5-cyanopyridin-2-yl)amino)cyclohexyl)ureido)-2-((S)-3,4-dimethylpiperazin-1-yl)pyridin-3-yl)acrylamide]	< 0.015	0.015 to 0.05
C=CC(=O)Nc1cc(N(C(=O)NCc2cccnc2)[C@H]2CC[C@H](Nc3ccc(C#N)cn3)CC2)ccc1N1CCN(C)[C@@H](C)C1 [YJZ1061, N-(5-(1-((1r,4S)-4-((5-cyanopyridin-2-yl)amino)cyclohexyl)-3-(pyridin-3-ylmethyl)ureido)-2-((S)-3,4-dimethylpiperazin-1-yl)phenyl)acrylamide]	0.05 to 0.5	0.05 to 0.5
